Four compounds from patent US10759777B2, “Carbazole-containing amides, carbamates, and ureas as cryptochrome modulators” (Synchronicity Pharma, Inc., priority 2014, dated 2020) can be followed below.

Bounds are passed on as bounds.

For test [1], the system named is core clock genes Per2, Bmal1, Cry2 in liver. Put plainly: Four day study, liver core clock gene mRNA in ICR mice. The conditions noted are these: 50 mg/kg PO BID 4 days; for liver Per2 expression: ZT6. In kind it is in vivo, mouse. On the procedure: Male ICR mice (weighing 30-35 g), obtained from Charles River Laboratories (Hollister, Calif.), were used for the experiment following at least 3 days of acclimation. Mice were dosed with vehicle (WFI or 10% Kolliphor) or compound (50 mg/kg, dose volume 5 mL/kg, PO) for 4 days BID (twice a day), beginning in the afternoon of the first day. The last dose of compound or vehicle was administered on the morning of harvest. On the day of harvest (6 hours following the final dose), mice were euthanized by CO2 asphyxiation and 50 mg of liver tissue was excised and placed in a tube containing 500 μl of RNA later.
E.Z.N.A.® HP Total RNA Isolation Kits (R6812-01 and the protocol described in the Manual, Revised 2010) were utilized to prepare and isolate RNA from the liver samples. To prepare the RNA samples, 10-30 mg of sample was removed from RNA-Later and placed in a 1.5 ml microfuge tube. GTC lysis buffer (700 μl) was added to the tissue, which was homogenized with a rotor-stator homogenizer (e.g. Tissue-Tearor, Model #985370 BioSpec Products with 4.5 mm probe, Cat. #985370-04), and then centrifuged at full speed (≥13,000×g) for 5 minutes. The cleared supernatant was transferred by pipetting to a DNA Clearance Column Pre-inserted in a 2 mL Collection Tube. The assembled column was centrifuged at 13,000×g for 1 minute, and the flow-through was saved. An equal volume (700 μl) of 70% ethanol was added to the lysate and mixed. The sample was then applied to a HiBind RNA spin column placed into a 2 ml collection tube, which was centrifuged at 10,000×g for 60 seconds at room temperature. RNA Wash Buffer I (250 μl) was added by pipetting directly onto a new HiBind RNA column inserted in a 2 ml collection tube. The assembled column was centrifuged at 10,000×g for 60 seconds. The RNA column was placed into a new 2 ml collection tube. DNase I stock solution is pipetted (75 μl) directly onto the surface of the HiBind RNA resin in each column (Using DNAse Digestion with RNase Free DNase Set (E1091): for each HiBind RNA column, the DNase I stock solution was prepared as followed: E.Z.N.A.® DNase I Digestion Buffer 73.5 μl, RNase Free DNase I (20 Kunitz/μl) 1.5 μl=Total Volume 75 μl). The column with bound RNA was incubated at room temperature (25-30° C.) for 15 minutes. RNA Wash Buffer I (500 μl) was added to the column and placed on a bench top for 2 minutes. After centrifuging at 10,000×g for 60 seconds, discarding the flow-through, 500 μl of RNA Wash Buffer II was added and centrifuged at 10,000×g for 60 seconds. Another 500 μl of RNA Wash Buffer II was added and the column assembly was centrifuged at 10,000×g for 60 seconds. The column was centrifuged for 2 minutes at maximum speed to completely dry the HiBind matrix. The column was placed in a clean 1.5 ml microcentrifuge tube and 40-70 μl of molecular biology grade water is added. After sitting for 1 minute, the column was centrifuged for 2 minutes at maximum speed to elute the RNA. The isolated RNA was collected into the collection tube.
RediPlate 96 RiboGreen RNA Quantification Kit (Invitrogen) RediPlate standard curve was prepared by transferring 20 l reconstituted RNA standard to a RediPlate well reconstituted in 180 l RediPlate TE buffer. For liver RNAs prepared from 30-100 mg of tissue using a kit similar to the Omega Bio-Tek HP Total RNA Kit and eluted in RNAse-free water in a volume of 50 l (microliters), 5 l of the total RNA is diluted in 195 l of RediPlate TE buffer (1:40 dilution of RNA), mix. After transferring 5 l to RediPlate well reconstituted in 195 l TE buffer and incubating 10 min. at RT, Fluorescence Intensity of wells with standards and samples were read in a Tecan M200 with Excitation set at 480 nm and Emission set at 520 nm with the gain set to ˜70%. Alternatively, one can use the FlexStation 3 with Ex 488 nm and Em 525 nm and a Cutoff of 515 nm.

The test system of test [2] is stable U20S reporter cells harboring Per2-dLuc. Kind of test: Per2 assay for evaluating the potency of test compounds (Per2-dLuc luminescence amplitude). In kind it is cell-based. On the procedure:
Compounds were screened by using a high-throughput circadian assay system as previously described in Zhang, E. E. et al. Cell, 2009, 139, 199-210. In brief, stable U20S reporter cells harboring Per2-dLuc were plated at a density of 30,000 cells/well in Corning 96-well, solid white, flat bottom, TC-treated microplates (Corning®), and incubated for 48 hours at 37° C. in the presence of 5% CO2 in a medium of Dulbecco's Modified Eagle Medium (DMEM) supplemented with 10% fetal bovine serum (FBS) and penicillin (100 units/mL)-streptomycin (100 μg/mL). […] DMSO stocks are then serially diluted in DMSO, typically diluting 3-fold for each dilution step. […] Immediately following synchronization, 1 μL of compound dilution is added to each well. Plates are sealed, shaken briefly, and gene expression was monitored by measuring luminescence (Tecan® Infinite M200 or Tecan® Infinite M200 Pro) continuously for a minimum of 3 days at 35° C. Raw luminescence data (counts) are first analyzed using Multicycle™ software (Actimetrics, Inc.) to determine the amplitude (amp), period, and phase (phz) for each compound concentration. The period length for control wells (i.e. no compound, DMSO only) should be 26-30 h. Amp data are then plotted against the logarithm compound concentration (M) and analyzed by nonlinear regression analysis to determine the EC50.

Test [3] has as its system rat model of cortisone-induced insulin resistance. Kind of test: Cortisone induced insulin resistance in rats. The conditions noted are these: cortisone 30 mg/kg sc with vehicle po. It is filed as in vivo. On the procedure:
Animals were dosed with cortisone (30 mg/kg sc qd) in combination with test compounds for 6 days and then terminated 27 hours after the final dose of cortisone. A reference standard (Mifepristone) was also included. Cortisone 21-acetate (Sigma C-3130) was supplied by RenaSci and administered using a dose volume of 5 ml/kg via the subcutaneous route as a fine suspension in 1% methylcellulose. […] Mifepristone (Sigma M8046) was provided by RenaSci.
Glucose and insulin determinations were performed on plasma samples obtained from a tail vein bleed taken after a 12 h fast, approximately 27 h after the last cortisone dose. Animals were then terminated and a terminal (cardiac) blood sample taken from which plasma was prepared.
Thirty four male Sprague Dawley rats (weight range 200-250 g) were ordered from Charles River, Margate, Kent, UK. […] Subsequently, animals underwent a 3 day baseline period during which they were dosed once daily with vehicle at t=0 h (07:00). […] Body weight was recorded immediately before dosing began at 07:00 (t=0 h).
On Day 6 of dosing rats were fasted for 12 h beginning at 22:30 (timed to coincide with the Day 7 termination). […] At 10:30 on Day 7, 27 h after the final dose of cortisone, a blood sample (300 μl) was taken from the lateral tail vein into tubes containing EDTA (Sarstedt 16.444). The blood was centrifuged and resultant plasma aliquot stored at −75° C. The animals were euthanized by CO2 asphyxiation followed by cervical dislocation. Terminal blood (approximately 10 ml) was collected by cardiac puncture into tubes containing EDTA (Sarstedt 5 ml 32.332) and then centrifuged and plasma stored at −75° C. The tail vein plasma was analyzed for glucose (n=2) using a commercial clinical reagent (Thermoelectron Infinity glucose reagent (TR15421) and for insulin (n=1) using the Mercodia ultrasensitive rat insulin rat ELISA (10-1251-10).
Plasma glucose and insulin were analyzed by robust regression or general linear model with treatment as a factor and bleeding order and baseline body weight as covariates. A log transformation was used if appropriate. Appropriate multiple comparison tests (two-tailed) were used to determine significant differences from the vehicle group and from the Cortisone group. P<0.05 was considered to be statistically significant.

Take `O=C1C2CCC(C2)N1CC(O)Cn1c2ccc(F)cc2c2cc(F)ccc21` (stereo not drawn) [Compound 48, 2-(3-(3,6-difluoro-9H-carbazol-9-yl)-2-hvdroxypropyl)-2-azabicyclo[2.2.1]heptan-3-one]: in test [1], the “liver Per2 expression” value was “suppression”. In test [1] (liver), the Cry2 transcripts result is given as “decrease” and the “increase in Bmal1 mRNA at ZT6” value is 8 fold.

For the compound `COC1CCCN(CC(O)Cn2c3ccc(F)cc3c3cc(F)ccc32)C1=O` (stereo not drawn) [Compound 57, 1-(3-(3,6-difluoro-9H-carbazol-9-yl)-2-hydroxypropyl)-3-methoxypiperidin-2-one], the “liver Per2 expression” value in test [1] was “suppression”. In addition, the “increase in Bmal1 mRNA at ZT6” value in test [1] (liver) was at least 2 fold.

One may read the EC50 as the concentration at which the effect is half-maximal. Consider `C[C@@H]1CN(C[C@H](O)Cn2c3ccccc3c3ccccc32)C(=O)N1` [Compound 138, (R)-1-((R)-3-(9H-carbazol-9-yl)-2-hydropropyl)-4-methylimidazolidin-2-one], for which the EC50 in test [2] is 520 nM.

In the case of `C[C@]12CCC(=O)C=C1CC[C@@H]1[C@@H]2C(=O)C[C@@]2(C)[C@H]1CC[C@]2(O)C(=O)CO` [Cortisone], in test [3], the HOMA-IR is reported as 95.57+/−11.4 units and the fasted plasma insulin was found to be 8.19 ± 0.91 ng/mL. In addition, the fasted plasma glucose in test [3] (rats) was 10.17 ± 0.51 mM.
